31 compounds from patent US11021481B2, “Substituted isoindolin-1-ones and 2,3-dihydro-1h-pyrrolo[3,4-c]pyridin-1-ones as HPK1 antagonists” (Nimbus Saturn, Inc., priority 2019, dated 2021) can be followed below.

Molecules are shown by their SMILES.

Chain of HPK1 (Q92918 whole entry): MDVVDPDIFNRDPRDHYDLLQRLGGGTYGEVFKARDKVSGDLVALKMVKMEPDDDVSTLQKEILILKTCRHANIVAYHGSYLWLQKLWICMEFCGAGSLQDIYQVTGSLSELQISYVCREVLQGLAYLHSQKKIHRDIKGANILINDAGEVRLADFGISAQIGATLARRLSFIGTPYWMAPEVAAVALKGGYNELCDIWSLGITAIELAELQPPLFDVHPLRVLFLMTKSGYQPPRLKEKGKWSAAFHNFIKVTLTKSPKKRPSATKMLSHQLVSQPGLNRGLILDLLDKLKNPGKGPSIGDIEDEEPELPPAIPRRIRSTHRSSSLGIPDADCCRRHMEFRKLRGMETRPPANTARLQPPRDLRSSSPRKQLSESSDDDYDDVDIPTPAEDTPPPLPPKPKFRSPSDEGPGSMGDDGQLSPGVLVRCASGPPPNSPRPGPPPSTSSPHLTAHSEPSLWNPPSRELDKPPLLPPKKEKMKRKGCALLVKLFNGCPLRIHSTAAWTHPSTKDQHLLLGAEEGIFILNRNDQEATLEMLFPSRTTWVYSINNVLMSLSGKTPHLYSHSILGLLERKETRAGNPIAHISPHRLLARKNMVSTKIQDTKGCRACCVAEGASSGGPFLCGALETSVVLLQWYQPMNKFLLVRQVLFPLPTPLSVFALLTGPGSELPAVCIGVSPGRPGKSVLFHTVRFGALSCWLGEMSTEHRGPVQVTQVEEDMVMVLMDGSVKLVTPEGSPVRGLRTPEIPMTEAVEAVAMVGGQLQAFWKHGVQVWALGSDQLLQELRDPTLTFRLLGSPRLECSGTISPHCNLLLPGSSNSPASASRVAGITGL

This assay concerns the target HPK1 (Homo sapiens (Human), UniProt Q92918). Description: HPK1 biochemical enzyme assay (microfluidic mobility shift assay). The conditions noted are these: 1.5 nM HPK1, ATP 1 mM final, 30 min preincubation, 60 min at RT, Caliper EZ Reader; read-out: HPK1 1000UMATP caliper IC50. An outline of the steps:
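Mobility shift readout of HPK1 activity after a 60 min RT reaction with 1 mM ATP, 1 μM substrate and 5 mM MgCl2. Enzyme/substrate mix was first exposed to compounds for 30 min, using ten-point curves topping at 3 μM final.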
What is called IC50 is the point on the concentration scale where inhibition reaches its midpoint. As for `Cn1ccc2c(-c3ncc(Nc4cccc(N5CCCNCC5)n4)c4c3CNC4=O)ccnc21` [I-240, 7-[[6-(1,4-diazepan-1-yl)-2-pyridyl]amino]-4-(1-methylpyrrolo [2,3-b]pyridin-4-yl)-2,3-dihydropyrrolo [3,4-c]pyridin-1-one], the 50% inhibitory concentration (IC50) was 100 to 1000 nM.

Consider `Cn1ccc2c(-c3ccc(Nc4ccc(N5CC6CCC(C5)N6)cn4)c4c3CNC4=O)ccnc21` [I-70, 7-[[5-(3,8-diazabicyc1o [3,2.1]octan-3-yl)-2-pyridyl]amino]-4-(1-methylpyrrolo [2,3-b]pyridin-4-yl)isoindolin-1-one], for which the half-inhibitory concentration (IC50) was less than 100 nM.

As to `O=C1NCc2c(-c3cnc4cc(F)ccn34)ccc(Nc3ccc(S(=O)(=O)CC4CCC4)cn3)c21` [I-321, 7-((5-((cyclobutyl-methyl)sulfonyl)pyridin-2-yl)amino)-4-(7-fluoroimidazo [1,2-a]pyridin-3-yl)isoindolin-1-one], the IC50 was less than 100 nM.

Consider `COC1(c2ccc(Nc3ccc(-c4cnc5cc(F)ccn45)c4c3C(=O)NC4)nc2CN(C)C)CC1` [I-823, 7-((6-((dimethylamino)methyl)-5-(1-methoxycyclopropyl)pyridin-2-yl)amino)-4-(7-fluoroimidazo[1,2-a]pyridin-3-yl)isoindolin-1-one], for which the IC50 was less than 100 nM.

`CN(C)C(C)(C)C1CCCN(c2ccc(Nc3ccc(-c4cnc5cc(F)ccn45)c4c3C(=O)NC4)nc2)C1` (stereo in doubt) [I-607, (S)-7-((5-(3-(2-(dimethylami-no)propan-2-yl)piperidin-1-yl)pyridin-2-yl)amino)-4-(7-fluoroimidazo [1,2-a]pyridin-3-yl)isoindolin-1-one]: the IC50 was less than 100 nM.

Consider `O=C1NCc2c(-c3cnc4cc(F)ccn34)ccc(Nc3ccc([C@@H]4CCOC4)c(CNCC(F)F)n3)c21` (single isomer, unassigned) [I-740], for which the concentration for half-maximal inhibition (IC50) was less than 100 nM.

As to `CN(C)Cc1nc(Nc2ccc(-c3cnc4cc(F)ccn34)c3c2C(=O)NC3)ccc1C1(F)CCOCC1` [I-834, 7-((6-((dimethylamino)-methyl)-5-(4-fluorotetrahy-dro-2H-pyran-4-yl)pyridin-2-yl)amino)-4-(7-fluoroimidazo [1,2-a]pyridin-3-yl)isoindolin-1-one], the half-maximal inhibitory concentration (IC50) is less than 100 nM.

In the case of `Cc1ccn2c(-c3ccc(Nc4ccc(N5CCC(O)CC5)cn4)c4c3CNC4=O)cnc2c1F` [I-151], the 50% inhibitory concentration (IC50) is less than 100 nM.

With `CN(Cc1nc(Nc2ccc(-c3cnc4cc(F)ccn34)c3c2C(=O)NC3)ccc1C1CCOC1)CC(F)(F)F` (stereo in doubt) [I-754, (S)-4-(7-fluoroimidazo [1,2-a]pyridin-3-yl)-7-((6-((methyl(2,2.2-trifluoroethyl)amino)methyl)-5-(tetrahydrofuran-3-yl)pyridin-2-yl)amino)isoin-dolin-1-one], the half-inhibitory concentration (IC50) was less than 100 nM.

Regarding `CN1CCN(c2ccc(Nc3cnc(-c4ccnc5[nH]ccc45)c4c3C(=O)NC4)nc2)CC1` [I-20, 7-[[5-(4-methylpiperazin-1-yl)-2-pyridyl]amino]-4-(1H-pyrrolo[2,3-b]pyridin-4-yl)-2,3-dihydropyrrolo [3,4-c]pyridin-1-one], the concentration for half-maximal inhibition (IC50) was less than 100 nM.

As for `Cn1nccc2c(-c3ccc(Nc4ccc(N5CCC(O)CC5)cn4)c4c3CNC4=O)cnc1-2` [I-375, 7-((5-(4-hydroxy-piperidin-1-yl)pyridin-2-yl)amino)-4-(1-methyl-1H-pyrrolo[2,3-c]pyridazin-5-yl)isoindolin-1-one], the IC50 was more than 1000 nM.

In the case of `COc1c(F)ccn2c(-c3ccc(Nc4ccc(N5CCC(O)CC5)cn4)c4c3CNC4=O)cnc12` [I-242, 4-(7-fluoro-8-methoxy-imidazo[1,2-a]pyridin-3-yl)-7-[[5-(4-hydroxy-1-piperidyl)-2-pyridyl]amino] isoindolin-1-one], the half-inhibitory concentration (IC50) was less than 100 nM.

For `COCCN(C)Cc1nc(Nc2ccc(-c3cnc4cc(F)ccn34)c3c2C(=O)NC3)ccc1C1CCOC1` (stereo in doubt) [I-728, (S)-4-(7-fluoroimidazo [1,2-a]pyridin-3-yl)-7-(6-(((2-methoxyethyl) (methyl)-amino)methyl)-5-(tetrahydrofuran-3-yl)pyridin-2-yl)amino)isoin-dolin-1-one], the IC50 was less than 100 nM.

Take `CNCc1nc(Nc2ccc(-c3cnc4cc(F)ccn34)c3c2C(=O)NC3)ccc1C1CCOC1` (stereo in doubt) [I-722, (S)-4-(7-fluoroimidazo [1,2-a]pyridin-3-yl)-7-((6-((methyl-amino)methyl)-5-(tetrahydrofuran-3-yl)pyridin-2-yl)amino)isoin-dolin-1-one]: the concentration for half-maximal inhibition (IC50) was less than 100 nM.

`COCC1CN(c2ccc(Nc3ccc(-c4cnc5nc(C)ccn45)c4c3C(=O)NC4)nc2)CCO1` (stereo in doubt) [I-628, (R)-7-((5-(2-(methoxymeth-yl)morpho-lino)pyridin-2-yl)amino)-4-(7-methylimidazol',2-a]pyriinidin-3-yl)isoindolin-1-one]: the IC50 is less than 100 nM.

For the compound `Cn1ccc2c(-c3ccc(Nc4ccc(C5CCNCC5)cn4)c4c3CNC4=O)ccnc21` [I-96, 4-(1-methylpyrrolo [2,3-b]pyridin-4-yl)-7-[[5-(4-piperidyl)-2-pyridyl]amino] isoindolin-1-one], the IC50 is less than 100 nM.

Consider `Cn1ccc2c(-c3ncc(Nc4ccc(N5CCC[C@](O)(CN6CCOCC6)C5)cn4)c4c3CNC4=O)ccnc21` (single isomer, unassigned) [I-674], for which the IC50 was less than 100 nM.

On to `Cc1cc(Nc2cnc(-c3ccnc4c3ccn4C)c3c2C(=O)NC3)nc(N2CC[C@@H]3CNC[C@@H]32)c1` [I-642, 7-((6-((3aR,6aR)-hcxahydropyrr-olo[3,4-b]pyrrol-1(2H)-yl)-4-methylpyridin-2-yl)amino)-4-(1-methyl-1H-pyrrolo[2,3-b]pyridin-4-yl)-2,3-dihydro-1H-pyrrolo[3,4-c]pyridin-1-one], for which the half-maximal inhibitory concentration (IC50) lay within 100 to 1000 nM.

Take `O=C1NCc2c(-c3cnc4cc(F)ccn34)ccc(Nc3ccc(N4CCC[C@](O)(CN5CCOCC5)C4)cn3)c21` [I-657, (S)-4-(7-fluoroimidazo [1,2-a]pyridin-3-yl)-7-((5-(3-hydroxy-3-(morpholinomethyl)piperidin-1-yl)pyridin-2-yl)amino)isoin-dolin-1-one]: the IC50 was less than 100 nM.

For the compound `Cn1ccc2c(-c3ncc(Nc4ccc(N5CCC[C@@](O)(CN6CCOCC6)C5)cn4)c4c3CNC4=O)ccnc21` (single isomer, unassigned) [I-673], the IC50 is less than 100 nM.

On to `O=C1NCc2c(-c3cnc4cc(C(F)F)ccn34)ccc(Nc3ccc([C@@]4(O)CCOC4)cn3)c21` [I-610, (S)-4-(7-(difluoromethyl)-imidazo[1,2-a]pyridin-3-yl)-7-((5-(3-hydroxytetra-hydrofuran-3-yl)pyridin-2-yl)amino)isoin-dolin-1-one], for which the IC50 was less than 100 nM.

Regarding `O=C1NCc2c(-c3cnc4ccccn34)ncc(Nc3ccc(N4CCNCC4)cn3)c21` [I-63, 4-imidazo[1,2-a]pyridin-3-yl-7-[(5-piperazin-1-yl-2-pyridyl)amino]-2,3-dihydropyrrolo [3,4-c]pyridin-1-one], the 50% inhibitory concentration (IC50) was less than 100 nM.

As for `CN1CCN(c2ccc(Nc3ccc(-c4cnn5ccncc45)c4c3C(=O)NC4)nc2)CC1` [I-113, 7-[[5-(4-methylpiperazin-1-yl)-2-pyridyl]amino]-4-pyrazolo[1,5-a]pyrazin-3-yl-isoindolin-1-one], the IC50 is less than 100 nM.

With `O=C1NCc2c(-c3cnc4cc(F)ccn34)ccc(Nc3ccc(N4CCOC[C@H](O)C4)cn3)c21` [I-338, (R)-4-(7-fluoroimidazo [1,2-a]pyridin-3-yl)-7-((5-(6-hydroxy-1,4-oxazepan-4-yl)pyridin-2-yl)amino)isoin-dolin-1-one], the half-inhibitory concentration (IC50) was less than 100 nM.

As to `O=C1NCc2c(-c3c[nH]c4ccccc34)ncc(Nc3ccc(N4CC5CCC(C4)O5)cn3)c21` [I-10, 4-(1H-indol-3-yl)-7-[[5-(8-oxa-3-azabicyclo [3.2.1]octan-3-yl)-2-pyridyl]amino]-2,3-dihydropyrrolo [3,4-c]pyridin-1-one], the IC50 was more than 1000 nM.

For the compound `CN(C)Cc1nc(Nc2cnc(-c3ccnc4c3ccn4C)c3c2C(=O)NC3)ccc1N1CCC(O)CC1` [I-776, 7-((6-((dimethylamino)-methyl)-5-(4-hydroxypiperidin-1-yl)pyridin-2-yl)amino)-4-(1-methyl-1H-pyrrolo[2,3-b]pyridin-4-yl)-2,3-dihydro-1H-pyrrolo[3,4-c]pyridin-1-one], the IC50 was less than 100 nM.

As for `O=C1NCc2c(-c3cnc4cc(Cl)ccn34)ccc(Nc3ccc(N4CCOCC(O)C4)cn3)c21` (stereo in doubt) [I-596, (R)-4-(7-chloroimidazo [1,2-a]pyridin-3-yl)-7-((5-(6-hydroxy-1.4-oxazepan-4-yl)pyridin-2-yl)amino)isoin-dolin-1-one], the 50% inhibitory concentration (IC50) was less than 100 nM.

For the compound `CN(C)Cc1nc(Nc2ccc(-c3cnc4cc(F)ccn34)c3c2C(=O)NC3)ccc1N1CCC[C@H](C(C)(C)O)C1` [I-746, (S)-7-((6-((dimethylamino)-methyl)-5-(3-(2-hydroxypropan-2-yl)piperidin-1-yl)pyridin-2-yl)amino)-4-(7-fluoroimidazo [1,2-a]pyridin-3-yl)isoindolin-1-one], the IC50 was less than 100 nM.

Regarding `Cc1nc2ccccn2c1-c1ccc(Nc2ccc(N3CCN(C)CC3)cn2)c2c1CNC2=O` [I-50, 4-(2-methylimidazo [1,2-a]pyridin-3-yl-)-7-[[5-(4-methylpiperazin-1-yl)-2-pyridyl]amino] isoindolin-1-1-one], the IC50 lay within 100 to 1000 nM.

As for `Cc1ccn2c(-c3ccc(Nc4ccc(N5CCOC(CN(C)C)C5)cn4)c4c3CNC4=O)cnc2c1F` (stereo in doubt) [I-613, (S)-7-((5-(2-((dimethylamino)-methyl)mor-pholino)pyridin-2-yl)amino)-4-(8-fluoro-7-methylimidazo [1,2-a]pyridin-3-yl)isoindolin-1-one], the IC50 was less than 100 nM.

Take `C[C@H](O)[C@H]1CCCN(c2ccc(Nc3ccc(-c4cnc5cc(F)ccn45)c4c3C(=O)NC4)nc2)C1` (stereo in doubt) [I-356, 4-(7-fluoroimidazo [1,2-a]pyridin-3-yl)-7-((5-((R)-3-((R)-1-hydroxyethyl)piperidin-1-yl)pyridin-2-yl)amino)isoin-dolin-1-one]: the half-inhibitory concentration (IC50) is less than 100 nM.
